In patent US20250084056A1, “SUBSTITUTED OXOISOINDOLINYL PIPERIDINE-2,6-DIONE COMPOUNDS” (BRISTOL-MYERS SQUIBB COMPANY, priority 2023, published 2025):
pIC50: −log10 of the molar value.

How the values were obtained:
Assay type in all cases: cell-based
GSPT1 = GSPT1 (Homo sapiens, UniProt P15170+Q96SW2); assay: GSPT1 Cellular Degradation Assay (DF15-GSPT1-ePL); set-up: expressed in transfected cells; details: DF15-GSPT1-ePL cells, 20 hours
Outline: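 DC50 and Dmax were derived from chemiluminescence, with 75% response set by the reference compound at […]. Readout was ePL enzyme-fragment complementation in a DF15 line expressing chimeric GSPT1. Cells were exposed to compound for 20 h at 37 °C in RPMI 1640 with 10% FBS, cooled 30 min, then lysed with substrate for 60 min.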

Cyclin E1 = Cyclin E1 (Homo sapiens, UniProt P24864+Q96SW2); assay: Cyclin E1 Cellular Degradation Assay (MSD); set-up: endogenous in cells; host or cells: OVCAR3; details: for DC50 / Dmax: Cyclin E1 cellular degradation; for Dmax: maximum degradation; for Ratio of GSPT1 DC50/Cyclin E1 DC50: selectivity for degradation of Cyclin E1 over GSPT1
Sequence of Cyclin E1 (P24864 whole entry): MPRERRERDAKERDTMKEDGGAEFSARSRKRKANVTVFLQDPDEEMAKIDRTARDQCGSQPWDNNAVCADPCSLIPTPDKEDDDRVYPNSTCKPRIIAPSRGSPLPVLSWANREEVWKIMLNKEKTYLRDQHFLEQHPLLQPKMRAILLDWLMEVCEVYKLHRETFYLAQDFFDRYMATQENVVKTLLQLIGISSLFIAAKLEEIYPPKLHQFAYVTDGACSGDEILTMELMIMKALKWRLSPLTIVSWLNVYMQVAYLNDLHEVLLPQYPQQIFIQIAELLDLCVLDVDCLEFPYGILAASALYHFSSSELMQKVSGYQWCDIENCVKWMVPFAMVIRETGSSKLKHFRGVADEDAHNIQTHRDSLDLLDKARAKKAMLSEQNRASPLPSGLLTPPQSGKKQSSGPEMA
Sequence of Cyclin E1 (Q96SW2 whole entry): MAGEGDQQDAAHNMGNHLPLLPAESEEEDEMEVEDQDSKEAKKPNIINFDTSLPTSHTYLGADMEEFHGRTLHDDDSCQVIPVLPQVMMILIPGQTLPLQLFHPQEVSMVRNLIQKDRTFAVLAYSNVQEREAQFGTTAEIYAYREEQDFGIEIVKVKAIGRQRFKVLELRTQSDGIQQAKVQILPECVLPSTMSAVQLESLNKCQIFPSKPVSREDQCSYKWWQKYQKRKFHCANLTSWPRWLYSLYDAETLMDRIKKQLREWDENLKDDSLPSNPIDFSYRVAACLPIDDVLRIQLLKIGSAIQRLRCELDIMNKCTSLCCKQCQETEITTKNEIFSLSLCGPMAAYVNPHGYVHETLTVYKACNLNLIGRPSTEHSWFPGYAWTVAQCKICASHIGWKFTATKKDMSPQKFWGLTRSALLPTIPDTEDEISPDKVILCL
Sequence of Cyclin E1 (Q16531 whole entry partner): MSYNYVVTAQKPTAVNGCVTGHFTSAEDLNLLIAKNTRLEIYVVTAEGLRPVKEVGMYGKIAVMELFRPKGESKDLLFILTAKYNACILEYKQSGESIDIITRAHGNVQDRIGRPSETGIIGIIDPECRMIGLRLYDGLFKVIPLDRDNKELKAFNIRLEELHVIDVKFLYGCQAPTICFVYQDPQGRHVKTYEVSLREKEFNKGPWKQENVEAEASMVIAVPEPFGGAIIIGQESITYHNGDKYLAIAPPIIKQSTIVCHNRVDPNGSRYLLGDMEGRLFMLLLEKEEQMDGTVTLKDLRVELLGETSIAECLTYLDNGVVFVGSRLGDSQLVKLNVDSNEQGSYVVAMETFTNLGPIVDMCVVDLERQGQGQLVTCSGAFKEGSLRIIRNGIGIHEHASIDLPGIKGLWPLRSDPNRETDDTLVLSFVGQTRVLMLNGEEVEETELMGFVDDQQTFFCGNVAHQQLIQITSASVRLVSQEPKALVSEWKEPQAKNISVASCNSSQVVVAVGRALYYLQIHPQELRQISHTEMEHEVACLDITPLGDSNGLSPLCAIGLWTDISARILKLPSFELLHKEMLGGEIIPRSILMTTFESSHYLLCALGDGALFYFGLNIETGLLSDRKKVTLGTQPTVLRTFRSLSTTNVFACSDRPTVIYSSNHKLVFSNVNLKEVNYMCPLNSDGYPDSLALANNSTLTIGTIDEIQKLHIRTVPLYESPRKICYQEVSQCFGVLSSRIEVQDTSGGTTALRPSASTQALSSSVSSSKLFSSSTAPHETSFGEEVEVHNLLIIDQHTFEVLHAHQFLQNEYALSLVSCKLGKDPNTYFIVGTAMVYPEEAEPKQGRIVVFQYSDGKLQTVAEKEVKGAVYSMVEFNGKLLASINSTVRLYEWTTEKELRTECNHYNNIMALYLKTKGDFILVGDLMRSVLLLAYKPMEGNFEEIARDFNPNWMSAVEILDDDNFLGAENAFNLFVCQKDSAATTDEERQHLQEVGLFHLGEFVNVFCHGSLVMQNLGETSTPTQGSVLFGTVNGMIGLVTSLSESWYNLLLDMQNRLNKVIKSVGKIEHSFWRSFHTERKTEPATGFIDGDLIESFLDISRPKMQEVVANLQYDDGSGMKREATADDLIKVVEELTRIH
Outline: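 Cyclin E1 remaining after 24 h compound exposure of OVCAR3 cells was quantified in lysates by electrochemiluminescent MSD sandwich assay. DC50 (50% response concentration) and Dmax (maximum response) were calculated, with 110% response set by a reference compound at […].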

Phospho-Rb (Ser807/811) = assay: Phospho-Retinoblastoma (pRB) Cellular Assay; details: Homo sapiens, OVCAR-3, NIH OVCAR3 cells, 24 hours; for pIC50: concentration giving 50% response; for Emax: maximum response, reference compound at 10 μM = 100%, read-out: pRB Ymax
Outline: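 Phospho-Rb (Ser807/811) kit read-out on EnVision after lysis (≥4 h, room temperature, dark) of OVCAR3 cells exposed to compound dilutions for 24 h. IC50 and maximum response Ymax are relative to a 10 μM reference compound defining 100%.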

Sequence of GSPT1 (P15170 whole entry, the tested form may be a part): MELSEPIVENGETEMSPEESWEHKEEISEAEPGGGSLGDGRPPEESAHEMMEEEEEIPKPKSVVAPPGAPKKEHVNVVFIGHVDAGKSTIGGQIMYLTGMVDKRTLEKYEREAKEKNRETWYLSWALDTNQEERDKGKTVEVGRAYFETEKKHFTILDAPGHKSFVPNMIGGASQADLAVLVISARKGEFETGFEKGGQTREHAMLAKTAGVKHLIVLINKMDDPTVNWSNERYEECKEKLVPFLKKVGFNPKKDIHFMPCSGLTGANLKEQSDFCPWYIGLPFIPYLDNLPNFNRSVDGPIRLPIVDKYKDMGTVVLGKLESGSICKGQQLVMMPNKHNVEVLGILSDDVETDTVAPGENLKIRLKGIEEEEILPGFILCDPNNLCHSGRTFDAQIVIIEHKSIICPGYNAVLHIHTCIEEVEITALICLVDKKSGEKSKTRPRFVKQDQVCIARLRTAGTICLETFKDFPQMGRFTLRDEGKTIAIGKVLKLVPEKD
Sequence of GSPT1 (Q96SW2 whole entry, the tested form may be a part): as the sequence (Q96SW2 whole entry) above
Sequence of GSPT1 (Q16531 whole entry partner, the tested form may be a part): as the sequence (Q16531 whole entry partner) above

Row | SMILES | DC50 (GSPT1) [nM] | Dmax (GSPT1) [%] | DC50 (Cyclin E1) [nM] | Dmax (Cyclin E1) [%] | Ratio of GSPT1 DC50/Cyclin E1 DC50 (Cyclin E1) | pIC50 (Phospho-Rb (Ser807/811)) | Emax (Phospho-Rb (Ser807/811)) [%]
1 | O=C1CCC(N2Cc3ccc(COC(=O)Nc4ccc(Oc5ccc(F)c(F)c5)cc4)c(O[C@@H]4CCOC4)c3C2=O)C(=O)N1 (stereo partly drawn) [Example 153, [2-(2,6-dioxopiperidin-3-yl)-3-oxo-4-[(3R)-oxolan-3-yloxy]-2,3-dihydro-1H-isoindol-5-yl]methyl N-[4-(3,4-difluorophenoxy)phenyl]carbamate] | > 14000 | 19 | 84 | 107 | >166 | 7.43 | 124
2 | O=C1CCC(N2Cc3ccc(COC(=O)Nc4ccc(Oc5ccc(F)c(F)c5)cc4F)c(O[C@@H]4CCOC4)c3C2=O)C(=O)N1 (stereo partly drawn) [Example 154, [2-(2,6-dioxopiperidin-3-yl)-3-oxo-4-[(3R)-oxolan-3-yloxy]-2,3-dihydro-1H-isoindol-5-yl]methyl N-[4-(3,4-difluorophenoxy)-2-fluorophenyl]carbamate] | > 14000 | 26 | 147 | 100 | >95 | 6.65 | 123
3 | CC(C)(O)COc1c(COC(=O)Nc2ccc(Oc3ccc(F)c(F)c3)cc2)ccc2c1C(=O)N(C1CCC(=O)NC1=O)C2 (centres unmarked) [Example 159, [2-(2,6-dioxopiperidin-3-yl)-4-(2-hydroxy-2-methylpropoxy)-3-oxo-2,3-dihydro-1H-isoindol-5-yl]methyl N-[4-(3,4-difluorophenoxy)phenyl]carbamate] | > 14000 | 21 | 15 | 101 | >937 | 7.33 | 145
4 | CC(C)(O)COc1c(COC(=O)Nc2ccc(Oc3ccccc3)cc2)ccc2c1C(=O)N(C1CCC(=O)NC1=O)C2 (centres unmarked) [Example 160, [2-(2,6-dioxopiperidin-3-yl)-4-(2-hydroxy-2-methylpropoxy)-3-oxo-2,3-dihydro-1H-isoindol-5-yl]methyl N-(4-phenoxyphenyl)carbamate] | > 14000 | 16 | 23 | 98 | >615 | 6.88 | 145
5 | CC(C)(O)COc1c(COC(=O)Nc2ccc(Oc3ccc(F)c(F)c3)cc2F)ccc2c1C(=O)N(C1CCC(=O)NC1=O)C2 (centres unmarked) [Example 161, [2-(2,6-dioxopiperidin-3-yl)-4-(2-hydroxy-2-methylpropoxy)-3-oxo-2,3-dihydro-1H-isoindol-5-yl]methyl N-[4-(3,4-difluorophenoxy)-2-fluorophenyl]carbamate] | > 14000 | 10 | 62 | 102 | >225 | 7.43 | 129
6 | CC(C)(O)COc1c(COC(=O)Nc2ccc(Oc3ccc(F)cc3)cc2F)ccc2c1C(=O)N(C1CCC(=O)NC1=O)C2 (centres unmarked) [Example 162, [2-(2,6-dioxopiperidin-3-yl)-4-(2-hydroxy-2-methylpropoxy)-3-oxo-2,3-dihydro-1H-isoindol-5-yl]methyl N-[2-fluoro-4-(4-fluorophenoxy)phenyl]carbamate] | > 14000 | 8 | 27 | 107 | >521 | 7.62 | 133
7 | CC(C)(O)COc1c(COC(=O)Nc2ccc(Oc3ccc(F)cc3F)cc2F)ccc2c1C(=O)N(C1CCC(=O)NC1=O)C2 (centres unmarked) [Example 163, [2-(2,6-dioxopiperidin-3-yl)-4-(2-hydroxy-2-methylpropoxy)-3-oxo-2,3-dihydro-1H-isoindol-5-yl]methyl N-[4-(2,4-difluorophenoxy)-2-fluorophenyl]carbamate] | > 14000 | 7 | 15 | 110 | >921 | 6.95 | 137
8 | CC(C)(O)COc1c(COC(=O)Nc2ccc(Oc3cc(F)cc(F)c3)cc2F)ccc2c1C(=O)N(C1CCC(=O)NC1=O)C2 (centres unmarked) [Example 164, [2-(2,6-dioxopiperidin-3-yl)-4-(2-hydroxy-2-methylpropoxy)-3-oxo-2,3-dihydro-1H-isoindol-5-yl]methyl N-[4-(3,5-difluorophenoxy)-2-fluorophenyl]carbamate] | > 14000 | 2 | 75 | 118 | >187 | 7.60 | 142
